The values below come from patent US12390437B2, “Itaconic acid derivatives and uses thereof intreating an inflammatory disease or a disease associated with an undesirable immune response” (Sitryx Therapeutics Limited, priority 2019, dated 2025).

Like-named read-outs stand apart in the source and are kept apart here. A value given as a limit tells only on which side of the number the result lay.

A short description of series [1]: Mouse pharmacokinetic study, intravenous dosing. The following applies: male, C57BL/6, mouse, iv, plasma, 10 mg/kg i.v., read-out: Parent compound concentration following intravenous administration. Format: in vivo. The procedure, abridged: (§1)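 Plasma drug levels were quantified by LC-MS/MS from K2EDTA facial-vein semi-serial bleeds (N=3 per time point) in male C57BL/6 mice aged 6-8 weeks. Gavage dosing used 100 mg/kg (5% DMSO/HPMC-Tween vehicle, 5 min–24 h); tail-vein dosing used 10 mg/kg (10% DMSO/HP-β-CD vehicle, 3 min–8 h).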

For series [2], the system named is hepatocytes. Description: Hepatocyte stability assay (mouse). Format: in vitro ADME. Particulars: 10 μM compound, 0.5×10^6 cells/mL, 60 minutes. The source says: (§2) Defrosted cryo-preserved hepatocytes (viability >70%) are used to determine the metabolic stability of a compound via calculation of intrinsic clearance (Clint; a measure of the removal of a compound from the liver in the absence of blood flow and cell binding). Clearance data are particularly important for in vitro work as they can be used in combination with in vivo data to predict the half-life and oral bioavailability of a drug.
(§3) The metabolic stability in hepatocytes assay involves a time-dependent reaction using both positive and negative controls. The cells must be pre-incubated at 37° C. then spiked with test compound (and positive control); samples taken at pre-determined time intervals are analysed to monitor the change in concentration of the initial drug compound over 60 minutes. A buffer incubation reaction (with no hepatocytes present) acts as a negative control and two cocktail solutions, containing compounds with known high and low clearance values (verapamil/7-hydroxycoumarin and propranolol/diltiazem), act as positive controls. • 1. The assay is run with a cell concentration of 0.5×10^6 cells/mL in Leibovitz buffer. • 2. All compounds and controls are run in duplicate. • 3. Compound concentration is 10 μM. • 4. All compounds and controls are incubated with both cells and buffer to show turnover is due to hepatic metabolism. • 5. All wells on the incubation plate will have 326.7 μL of either cells or buffer added. • 6. Prior to assay, cell and buffer-only incubation plates are preincubated for 10 mins at 37° C. • 7. The assay is initiated by adding compounds, 3.3 μL of 1 mM in 10% DMSO-90% Buffer; final DMSO concentration is 0.1%. • 8. Samples are taken at regular timepoints (0, 5, 10, 20, 40, 60 min) until 60 mins. • 9. Sample volume is 40 μL and it is added to 160 μL of crash solvent (acetonitrile with internal standard) and stored on ice. • 10. At the end of the assay, the crash plates are centrifuged at 3500 rpm for 20 mins at 4° C. • 11. 80 μL of clear supernatant is removed and mixed with 80 μL of deionised water before being analysed by LC-MS/MS.
(§4) Raw LC-MS/MS data are exported to, and analysed in, Microsoft Excel for determination of intrinsic clearance. The percentage remaining of a compound is monitored using the peak area of the initial concentration as 100%. Intrinsic clearance and half-life values are calculated using a graph of the natural log of percentage remaining versus the time of reaction in minutes. Half-life (min) and intrinsic clearance (Clint in μL min^−1 10^−6 cells) values are calculated using the gradient of the graph (the elimination rate constant, k) and Equations 1 and 2.

Series [3] can be described thus: Hepatocyte stability assay (mouse). The format is in vitro ADME. The following applies: cryopreserved hepatocytes, 10 μM compound, 0.5×10^6 cells/mL, 60 minutes, read-out: T½.
Text: as §2, §3, §4

The nature of series [4]: Mouse pharmacokinetic study, oral administration. The format is in vivo. Particulars: for concentration at 0.083 h / concentration at 0.25 h / concentration at 0.5 h / concentration at 1 h / concentration at 2 h / concentration at 4 h / concentration at 6 h / concentration at 8 h / concentration at 24 h: male. The procedure, abridged:
as §1

Where [5] appears, read: C57BL/6, mouse, plasma, po, 100 mg/kg, plasma, male C57BL/6 mice, oral gavage 100 mg/kg, 0.083 h, read-out: Parent compound concentrations following oral administration, Time 0.083 h.
Where [6] appears, read: C57BL/6, mouse, plasma, po, 100 mg/kg, plasma, male C57BL/6 mice, oral gavage 100 mg/kg, 0.25 h, read-out: Parent compound concentrations following oral administration, Time 0.25 h.
[7] abbreviates: C57BL/6, mouse, plasma, po, 100 mg/kg, plasma, male C57BL/6 mice, oral gavage 100 mg/kg, 0.5 h, read-out: Parent compound concentrations following oral administration, Time 0.5 h.
[8] abbreviates: C57BL/6, mouse, plasma, po, 100 mg/kg, plasma, male C57BL/6 mice, oral gavage 100 mg/kg, 1 h, read-out: Parent compound concentrations following oral administration, Time 1 h.
[9] abbreviates: C57BL/6, mouse, plasma, po, 100 mg/kg, plasma, male C57BL/6 mice, oral gavage 100 mg/kg, 2 h, read-out: Parent compound concentrations following oral administration, Time 2 h.
[10] abbreviates: C57BL/6, mouse, plasma, po, 100 mg/kg, plasma, male C57BL/6 mice, oral gavage 100 mg/kg, 4 h, read-out: Parent compound concentrations following oral administration, Time 4 h.
Setting [11] is: C57BL/6, mouse, plasma, po, 100 mg/kg, plasma, male C57BL/6 mice, oral gavage 100 mg/kg, 6 h, read-out: Parent compound concentrations following oral administration, Time 6 h.
[12] abbreviates: C57BL/6, mouse, plasma, po, 100 mg/kg, plasma, male C57BL/6 mice, oral gavage 100 mg/kg, 8 h, read-out: Parent compound concentrations following oral administration, Time 8 h.
Setting [13] is: C57BL/6, mouse, plasma, po, 100 mg/kg, plasma, male C57BL/6 mice, oral gavage 100 mg/kg, 24 h, read-out: Parent compound concentrations following oral administration, Time 24 h.

Turning to `C=C(CC(=O)O[C@H](C)CCCCCC)C(=O)OCC(=O)O` [Example 112, (R)-2-((2-methylene-4-(octan-2-yloxy)-4-oxobutanoyl)oxy)acetic acid], the concentration at 0.05 h in series [1] came out at 63500 ng/mL. The concentration at 0.133 h in series [1] was found to be 40100 ng/mL. Further, the concentration at 0.25 h was 36200 ng/mL in series [1]; 64600 ng/mL in series [4] (setting [6]); 116000 ng/mL in series [4] (C57BL/6, po, mouse plasma, Example 112 dosed orally at 100 mg/kg (Intermediate 8 = metabolite), time 0.25 h, read-out: Example 112 and Intermediate 8 concentrations following oral administration). The concentration at 0.5 h in series [1] amounted to 23500 ng/mL; in series [4] (setting [7]), 72300 ng/mL; in series [4] (C57BL/6, po, mouse plasma, Example 112 dosed orally at 100 mg/kg (Intermediate 8 = metabolite), time 0.5 h, read-out: Example 112 and Intermediate 8 concentrations following oral administration), 74200 ng/mL. Moreover, the concentration at 1 h is 13000 ng/mL in series [1]; 49500 ng/mL in series [4] (setting [8]); 27900 ng/mL in series [4] (C57BL/6, po, mouse plasma, Example 112 dosed orally at 100 mg/kg (Intermediate 8 = metabolite), time 1 h, read-out: Example 112 and Intermediate 8 concentrations following oral administration). Moreover, the concentration at 2 h in series [1] was determined as 3540 ng/mL; in series [4] (setting [9]), 31400 ng/mL; in series [4] (C57BL/6, po, mouse plasma, Example 112 dosed orally at 100 mg/kg (Intermediate 8 = metabolite), time 2 h, read-out: Example 112 and Intermediate 8 concentrations following oral administration), 14000 ng/mL. The concentration at 4 h in series [1] amounted to 1510 ng/mL; in series [4] (setting [10]), 21300 ng/mL; in series [4] (C57BL/6, po, mouse plasma, Example 112 dosed orally at 100 mg/kg (Intermediate 8 = metabolite), time 4 h, read-out: Example 112 and Intermediate 8 concentrations following oral administration), 4880 ng/mL. The concentration at 6 h is 424 ng/mL in series [1]; 6780 ng/mL in series [4] (setting [11]); 4020 ng/mL in series [4] (C57BL/6, po, mouse plasma, Example 112 dosed orally at 100 mg/kg (Intermediate 8 = metabolite), time 6 h, read-out: Example 112 and Intermediate 8 concentrations following oral administration). Further, the concentration at 8 h in series [1] worked out at 154 ng/mL; in series [4] (setting [12]), 12200 ng/mL; in series [4] (C57BL/6, po, mouse plasma, Example 112 dosed orally at 100 mg/kg (Intermediate 8 = metabolite), time 8 h, read-out: Example 112 and Intermediate 8 concentrations following oral administration), 867 ng/mL. For the same molecule, in series [2], the “CIint (μL min^−1 10^−6 cells)” value is recorded as 255 μL min^−1 10^−6 cells. Moreover, the half-life at 10 μM in series [3] amounted to 13 min. For the same molecule, the concentration at 0.083 h was 79800 ng/mL in series [4] (setting [5]); 109000 ng/mL in series [4] (C57BL/6, po, mouse plasma, Example 112 dosed orally at 100 mg/kg (Intermediate 8 = metabolite), time 0.083 h, read-out: Example 112 and Intermediate 8 concentrations following oral administration). Also, the concentration at 24 h in series [4] (setting [13]) was 25 ng/mL; in series [4] (C57BL/6, po, mouse plasma, Example 112 dosed orally at 100 mg/kg (Intermediate 8 = metabolite), time 24 h, read-out: Example 112 and Intermediate 8 concentrations following oral administration) it was < 8 ng/mL. Further, the Metabolism in vivo result in series [4] (mouse pharmacokinetic study, oral) is reported as “undergoes hydrolysis in vivo to form Intermediate 8”.

For the molecule `C=C(CC(=O)OC1C(C)(C)CC1(C)C)C(=O)OCC(=O)O` [Example 169, 2-((2-methylene-4-oxo-4-(2,2,4,4-tetramethylcyclobutoxy)butanoyl)oxy) acetic acid], in series [1], the concentration at 0.05 h turned out to be 15600 ng/mL, the concentration at 0.133 h stood at 6430 ng/mL, the concentration at 0.25 h came out at 2800 ng/mL and the concentration at 0.5 h came to 516 ng/mL. In series [1], the concentration at 1 h was 8.6 ng/mL, the concentration at 2 h amounted to 2.5 ng/mL, the concentration at 4 h was determined as 1.3 ng/mL and the concentration at 6 h was < 0.8 ng/mL. Further, in series [1], the concentration at 8 h was < 0.8 ng/mL. In addition, in series [2], the “CIint (μL min^−1 10^−6 cells)” value turned out to be 38 μL min^−1 10^−6 cells. Moreover, the half-life at 10 μM in series [3] was found to be 34 min. Besides, the concentration at 0.083 h in series [4] (setting [5]) came out at 37800 ng/mL. Besides, the concentration at 0.25 h in series [4] (setting [6]) was 9880 ng/mL. Further, the concentration at 0.5 h in series [4] (setting [7]) worked out at 4600 ng/mL. In addition, in series [4] (setting [8]), the concentration at 1 h came out at 1750 ng/mL. The concentration at 2 h in series [4] (setting [9]) came out at 971 ng/mL. The concentration at 4 h in series [4] (setting [10]) is 215 ng/mL. Besides, the concentration at 6 h in series [4] (setting [11]) is 57 ng/mL. For the same molecule, the concentration at 8 h in series [4] (setting [12]) came to 7.7 ng/mL. The concentration at 24 h in series [4] (setting [13]) was < 0.8 ng/mL.

On to `C=C(CC(=O)OC1CCCCCCC1)C(=O)OC(C)c1nnn[nH]1` (stereo not shown) [Example 133, 1-(1-(1H-tetrazol-5-yl)ethyl) 4-cyclooctyl 2-methylenesuccinate], for which, in series [1], the concentration at 0.05 h was 11000 ng/mL, the concentration at 0.133 h was 4570 ng/mL, the concentration at 0.25 h was 1950 ng/mL and the concentration at 0.5 h came out at 315 ng/mL. Besides, in series [1], the concentration at 1 h was found to be 33 ng/mL, the concentration at 2 h was < 8 ng/mL, the concentration at 4 h was < 8 ng/mL and the concentration at 6 h is < 8 ng/mL. In series [1], the concentration at 8 h is < 8 ng/mL. Further, the “CIint (μL min^−1 10^−6 cells)” value in series [2] turned out to be 107 μL min^−1 10^−6 cells. In addition, the half-life at 10 μM in series [3] was found to be 14 min. In addition, the concentration at 0.083 h in series [4] (setting [5]) is 9360 ng/mL. For the same molecule, the concentration at 0.25 h in series [4] (setting [6]) came out at 9940 ng/mL. Further, the concentration at 0.5 h in series [4] (setting [7]) turned out to be 4270 ng/mL. In series [4] (setting [8]), the concentration at 1 h turned out to be 1100 ng/mL. For the same molecule, in series [4] (setting [9]), the concentration at 2 h turned out to be 527 ng/mL. Further, in series [4] (setting [10]), the concentration at 4 h turned out to be 799 ng/mL. In addition, in series [4] (setting [11]), the concentration at 6 h turned out to be 146 ng/mL. Moreover, the concentration at 8 h in series [4] (setting [12]) was 101 ng/mL. In addition, the concentration at 24 h in series [4] (setting [13]) is < 8 ng/mL.
